Data from paper PMC5461540, “MOB1 Mediated Phospho-recognition in the Core Mammalian Hippo Pathway” (Molecular & Cellular Proteomics : MCP, 2017).
Substitutions are numbered along the chain they refer to. Read-outs that look alike come from different tables or passages of the source. Where a SMILES comes first, the peptide text is derived from it.

How the values were obtained:
MOB3B = target: T1, MOB3B (Homo sapiens, UniProt Q86TA1); experiment: Fluorescence polarization peptide binding assay, MOB3B; settings: Fig. 5A, FP, 20 nM FITC labeled peptide, pH 7.5, mean ± S.E. (n = 3), read-out: Kd, μM (to MST1 pT367 peptide)
T1 construct: MOB3B (2–216, NP_079037); 6xHis (N, cleaved yes); GST (N, cleaved yes); made in house; host or cells: E. coli BL21 (DE3) CodonPlus RIL
T1 sequence (Q86TA1 2-216): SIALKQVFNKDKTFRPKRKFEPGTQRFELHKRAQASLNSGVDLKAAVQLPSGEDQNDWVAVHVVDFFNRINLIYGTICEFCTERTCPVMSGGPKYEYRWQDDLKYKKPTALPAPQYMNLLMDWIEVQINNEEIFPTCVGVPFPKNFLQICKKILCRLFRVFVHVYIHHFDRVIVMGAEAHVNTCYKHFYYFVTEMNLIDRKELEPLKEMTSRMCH
Excerpt: (§1) Human MST1 kinase domain (amino acids 2–326, corresponding to NCBI RefSeq protein NP_006273), MST2 kinase domain (2–322, NP_006272), MOB1B (2–216, NP_001231695), MOB1A (2–216, NP_060691) wild-type and indicated MOB1A mutant proteins, MOB2 (2–237, NP_001165694), MOB3A (2–217, NP_570719), MOB3B (2–216, NP_079037), MOB3C (2–216, NP_660322), MOB4 (2–225, NP_056202), MOB4^RRR→AAA (2–225), and yeast Mob1 (79–314, NP_012160) were expressed in E. coli BL21 (DE3) CodonPlus RIL cells as N-terminal dual 6xhistidine (HIS) and glutathione S-transferase (GST), Tobacco Etch Virus (TEV) cleavable, fusion proteins using a modified pETM-30 vector. MOB wild-type and mutants were purified in batch on glutathione-Sepharose resin (GE Healthcare, Uppsala, Sweden) and eluted by cleavage from the affinity tags with HIS tagged TEV protease. […]
(§2) MST1 phosphopeptides encompassing pT353 and pT367 (15-mers) used for crystallization and FITC labeled nonphosphorylated and phosphorylated MST1 T353 peptides, T367 peptides, T329-T340 peptides, T380-T387 peptides and optimized Nud1-like peptides for fluorescence polarization binding experiments were purchased from Biomatik (Cambridge, ON). […]
(§3) Twelve-point fluorescence polarization binding measurements were performed in triplicate in 384-well plate format using an Analyst HT (Artisan-Scientific, Sunnyvale, CA) reader. […]

MOB3C = target: T2, MOB3C (Homo sapiens, UniProt Q70IA8); experiment: Fluorescence polarization peptide binding assay, MOB3C; settings: Fig. 5A, FP, 20 nM FITC labeled peptide, pH 7.5, mean ± S.E. (n = 3), read-out: Kd, μM (to MST1 pT367 peptide)
T2 construct: MOB3C (2–216, NP_660322); 6xHis (N, cleaved yes); GST (N, cleaved yes); made in house; host or cells: E. coli BL21 (DE3) CodonPlus RIL
T2 sequence (Q70IA8 2-216): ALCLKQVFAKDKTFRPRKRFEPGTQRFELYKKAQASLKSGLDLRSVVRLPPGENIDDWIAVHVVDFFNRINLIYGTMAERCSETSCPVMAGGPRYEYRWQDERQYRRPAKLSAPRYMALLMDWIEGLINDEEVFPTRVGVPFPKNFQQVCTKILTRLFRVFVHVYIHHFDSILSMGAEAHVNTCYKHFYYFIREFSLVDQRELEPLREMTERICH
Excerpt: as §1, §2, §3

MOB4 = target: T3, MOB4 (Homo sapiens, UniProt Q9Y3A3); experiment: Fluorescence polarization peptide binding assay, MOB4; settings: Fig. 5A, FP, 20 nM FITC labeled peptide, pH 7.5, mean ± S.E. (n = 3), read-out: Kd, μM (to MST1 pT367 peptide)
T3 construct: MOB4 (2–225, NP_056202); 6xHis (N, cleaved yes); GST (N, cleaved yes); made in house; host or cells: E. coli BL21 (DE3) CodonPlus RIL
T3 sequence (Q9Y3A3 2-225): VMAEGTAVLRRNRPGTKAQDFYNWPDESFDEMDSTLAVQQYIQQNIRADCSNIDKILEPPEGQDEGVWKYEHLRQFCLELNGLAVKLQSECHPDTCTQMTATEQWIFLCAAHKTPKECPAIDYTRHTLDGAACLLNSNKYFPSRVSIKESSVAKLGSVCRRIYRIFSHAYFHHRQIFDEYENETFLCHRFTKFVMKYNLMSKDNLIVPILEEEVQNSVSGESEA
Excerpt: as §1, §2, §3

MOB3A = target: T4, MOB3A (Homo sapiens, UniProt Q96BX8); experiment: Fluorescence polarization peptide binding assay, MOB3A; settings: Fig. 5A, FP, 20 nM FITC labeled peptide, pH 7.5, mean ± S.E. (n = 3), read-out: Kd, μM (to MST1 pT367 peptide)
T4 construct: MOB3A (2–217, NP_570719); 6xHis (N, cleaved yes); GST (N, cleaved yes); made in house; host or cells: E. coli BL21 (DE3) CodonPlus RIL
T4 sequence (Q96BX8 2-217): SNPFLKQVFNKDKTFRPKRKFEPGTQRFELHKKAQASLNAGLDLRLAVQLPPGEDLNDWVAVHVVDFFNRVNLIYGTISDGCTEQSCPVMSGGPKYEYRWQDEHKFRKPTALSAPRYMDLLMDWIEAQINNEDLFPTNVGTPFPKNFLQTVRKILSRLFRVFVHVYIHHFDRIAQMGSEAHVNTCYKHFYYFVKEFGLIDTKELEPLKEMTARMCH
Excerpt: as §1, §2, §3

MOB1A = target: T5, MOB1A (Homo sapiens, UniProt Q9H8S9); experiment: Fluorescence polarization peptide binding assay, MOB1A wild-type; settings: FP, 20 nM FITC labeled peptide, pH 7.5
T5 construct: MOB1A (2–216, NP_060691); 6xHis (N, cleaved yes); GST (N, cleaved yes); made in house; host or cells: E. coli BL21 (DE3) CodonPlus RIL
T5 sequence (Q9H8S9 2-216): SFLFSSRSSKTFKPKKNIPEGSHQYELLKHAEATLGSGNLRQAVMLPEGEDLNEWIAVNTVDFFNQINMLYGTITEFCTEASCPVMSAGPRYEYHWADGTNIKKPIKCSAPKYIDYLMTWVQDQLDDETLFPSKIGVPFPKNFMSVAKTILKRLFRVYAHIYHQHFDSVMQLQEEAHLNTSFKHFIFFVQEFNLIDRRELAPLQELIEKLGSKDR
Excerpt: Human MST1 kinase domain (amino acids 2–326, corresponding to NCBI RefSeq protein NP_006273), MST2 kinase domain (2–322, NP_006272), MOB1B (2–216, NP_001231695), MOB1A (2–216, NP_060691) wild-type and indicated MOB1A mutant proteins, MOB2 (2–237, NP_001165694), MOB3A (2–217, NP_570719), MOB3B (2–216, NP_079037), MOB3C (2–216, NP_660322), MOB4 (2–225, NP_056202), MOB4^RRR→AAA (2–225), and yeast Mob1 (79–314, NP_012160) were expressed in E. coli BL21 (DE3) CodonPlus RIL cells as N-terminal dual 6xhistidine (HIS) and glutathione S-transferase (GST), Tobacco Etch Virus (TEV) cleavable, fusion proteins using a modified pETM-30 vector. MOB wild-type and mutants were purified in batch on glutathione-Sepharose resin (GE Healthcare, Uppsala, Sweden) and eluted by cleavage from the affinity tags with HIS tagged TEV protease. TEV protease was removed from the eluted protein by subtractive immobilized-metal affinity chromatography. Cleaved protein was then concentrated and buffer exchanged by size exclusion chromatography (SEC) using a Superdex 75 120 ml column (GE Healthcare). For GST pull-downs and Far-Western analysis, the TEV cleavage step was omitted.
MST1 phosphopeptides encompassing pT353 and pT367 (15-mers) used for crystallization and FITC labeled nonphosphorylated and phosphorylated MST1 T353 peptides, T367 peptides, T329-T340 peptides, T380-T387 peptides and optimized Nud1-like peptides for fluorescence polarization binding experiments were purchased from Biomatik (Cambridge, ON). Peptide sequences used for crystallization studies are: T353, […](p)TMIEH and T367, […](p)TMVINA. All peptides used for biophysical studies are listed in supplemental Table S1.
Twelve-point fluorescence polarization binding measurements were performed in triplicate in 384-well plate format using an Analyst HT (Artisan-Scientific, Sunnyvale, CA) reader. Each 20 μl measurement condition contained 20 nM FITC labeled MST1 peptide or Nud1-like peptide and the indicated concentration of MOB proteins in 25 mM HEPES pH 7.5, 150 mM NaCl, 2 mM DTT, and 1 mg/ml bovine serum albumin (BSA). Kd values were obtained by fitting the results to a one site-specific binding model using GraphPad Prism.

MOB1A KRR→3A mutant = target: T6, MOB1A KRR→3A mutant (Homo sapiens, UniProt Q9H8S9, K153A/R154A/R157A); experiment: Fluorescence polarization peptide binding assay, MOB1A KRR→3A mutant (K153, R154, R157 to alanine); settings: Fig. 2B, MOB1A KRR→3A (K153, R154, R157 to alanine); FP, 20 nM FITC labeled peptide, pH 7.5; n = 3; N.D. = Kd could not be determined
T6 construct: MOB1A (2–216, NP_060691) wild-type and indicated MOB1A mutant proteins; 6xHis (N, cleaved yes); GST (N, cleaved yes); made in house; host or cells: E. coli BL21 (DE3) CodonPlus RIL
T6 sequence (Q9H8S9 2-216 K153A/R154A/R157A): T5 sequence (Q9H8S9 2-216) with K152A, R153A, R156A
Excerpt: as §1, §2, §3

- Kd (MOB3B): 2 to 3 µM
- Kd (MOB3C): 2 to 3 µM
- Kd (MOB4): 12.2 µM
- Kd (MOB3A): 2 to 3 µM
- Kd (MOB1A; recombinant wild-type MOB1A, read-out: Kd): 0.68 µM
- Kd (MOB1A; Fig. 5A, MOB1A, mean ± S.E. (n = 3), read-out: Kd, μM (to MST1 pT367 peptide)): 0.67 ± 0.09 µM
- Kd (MOB1A KRR→3A mutant): no measurable binding
Structure (SMILES): CC[C@H](C)[C@H](NC(=O)[C@@H](NC(=O)[C@H](CCSC)NC(=O)[C@@H](NC(=O)CNC(=O)[C@H](CC(C)C)NC(=O)[C@H](CCC(N)=O)NC(=O)[C@H](CO)NC(=O)[C@@H]1CCCN1C(=O)[C@H](CC(C)C)NC(=O)[C@@H](NC(=O)[C@H](CC(=O)O)NC(=O)[C@@H](N)CC(=O)O)[C@@H](C)O)[C@@H](C)OP(=O)(O)O)C(C)C)C(=O)N[C@@H](CC(N)=O)C(=O)N[C@@H](C)C(=O)O [pT367] (HELM PEPTIDE1{D.D.T.L.P.S.Q.L.G.[C[C@@H](OP(=O)(O)O)[C@H](N[*:1])C(=O)[*:2]].M.V.I.N.A}$$$$V2.0)
